Reference: ChEMBL document CHEMBL1759941, “Discovery of pyrrolo[2,3-d]pyrimidin-4-ones as corticotropin-releasing factor 1 receptor antagonists with a carbonyl-based hydrogen bonding acceptor” (Bioorg Med Chem Lett, 2011)

Experiments:
[1] = target: T1, Corticotropin-releasing factor receptor 1 (Homo sapiens, UniProt P34998); assay: Displacement of ovine [125I]CRF from human CRF1 receptor expressed in CHO cells; type: cell-based
T1 sequence (P34998 whole entry): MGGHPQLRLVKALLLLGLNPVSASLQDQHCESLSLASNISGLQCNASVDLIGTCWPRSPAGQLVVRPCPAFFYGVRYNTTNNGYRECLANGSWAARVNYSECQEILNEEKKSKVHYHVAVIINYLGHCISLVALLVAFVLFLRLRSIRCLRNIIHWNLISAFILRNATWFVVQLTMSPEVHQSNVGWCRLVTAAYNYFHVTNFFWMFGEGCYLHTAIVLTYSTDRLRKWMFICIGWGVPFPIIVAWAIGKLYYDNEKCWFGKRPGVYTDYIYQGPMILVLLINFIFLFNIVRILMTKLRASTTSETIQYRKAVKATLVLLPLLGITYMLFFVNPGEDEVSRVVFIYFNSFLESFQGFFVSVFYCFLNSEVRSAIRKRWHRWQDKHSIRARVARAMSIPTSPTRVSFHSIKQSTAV

[2] = test system: Mus musculus; assay: Ex vivo displacement of [125I]-sauvagine from CRF1 receptor in mouse Olfactory bulb at 30 mg/kg, po administered 60 mins before mouse decapitation and measured after 2 hrs by gamma scintillation counting; type: functional
[3] = test system: Mus musculus; assay: Ex vivo displacement of [125I]-sauvagine from CRF1 receptor in mouse pituitary gland at 30 mg/kg, po administered 60 mins before mouse decapitation and measured after 2 hrs by gamma scintillation counting; type: functional
[4] = test system: Mus musculus; assay: Ex vivo displacement of [125I]-sauvagine from CRF1 receptor in mouse frontal cortex at 30 mg/kg, po administered 60 mins before mouse decapitation and measured after 2 hrs by gamma scintillation counting; type: functional
[5] = Ratio of drug uptake in brain to plasma of mouse at 30 mg/kg, po; type: ADME, organism-based; design: dose 30 mg/kg, route oral; settings: read-out: BBB

Structure (SMILES)	IC50 [1] [nM]	other results
Cc1cc(C)c(-c2cn(C)c3nc(N(CC4CC4)CC4CC4)n(C)c(=O)c23)c(C)c1	140	
CCC(CC)Oc1cc(C)nc(Oc2c(C)cc(C)cc2C)c1C	92	
CCCN(CCC)c1nc2c(c(-c3ccc(OC)cc3OC)cn2C)c(=O)n1C	3000	
CCCN(CCC)c1nc2c(c(-c3c(C)cc(C)cc3C)c(C)n2C)c(=O)n1C	1100	
CCCCN(CCCC)c1nc2c(c(-c3c(C)cc(C)cc3C)cn2C)c(=O)n1C	970	
Cc1cc(C)c(-c2cn(C)c3nc(N4CCCCC4)n(C)c(=O)c23)c(C)c1	3800	
CCCN(CCC)c1nc2c(c(-c3c(OC)cc(OC)cc3OC)cn2C)c(=O)n1C	3100	
CCCN(CCC)c1nc2c(c(-c3c(C)cc(C)cc3C)cn2C)c(=O)n1C	120	inhibition in vivo at 30 mg/kg [2]: 22%; inhibition in vivo at 30 mg/kg [3]: 53%; inhibition in vivo at 30 mg/kg [4]: 35%; Kp [5]: 0.42
CCCN(CCC)c1nc2c(c(-c3ccc(C)cc3C)cn2C)c(=O)n1C	1600	
CCCN(CCC)c1nc2c(c(-c3ccc(C)cc3C)c(C)n2C)c(=O)n1C	3300	
CCN(CC)c1nc2c(c(-c3c(C)cc(C)cc3C)cn2C)c(=O)n1C	7700	
CCCN(CCC)c1nc2c(c(-c3ccc(C(F)(F)F)cc3C(F)(F)F)cn2C)c(=O)n1C	3000	
CCCCN(CC)c1nc(C)nc2c1c(C)cn2-c1c(C)cc(C)cc1C [CP-154526]	11	
